According to patent US20250179017A1 (GUANGDONG NEWOPP BIOPHARMACEUTICALS CO., LTD., priority 2022, published 2025):

molecular target: T1, human EP2 (PTGER2) (Homo sapiens, UniProt P43116); test: EP2 antagonist assay (HEK-293 CNG membrane potential cAMP assay / 293T SEAP reporter assay, PGE2-stimulated); type: cell-based; details: EP2 antagonist activity; concentration for 50% inhibition of signal compared to DMSO
T1 construct: Cayman Chemical (Human EP2 Reporter Assay Kit)
Description: 1. The HEK-293 CNG (Cyclic Nucleotide Gated) cell line expressing a modified CNG channel that leads to cell membrane depolarization in response to elevated intracellular cAMP levels, which can be measured using a fluorescent membrane potential dye, was engineered to express human EP2 (PTGER2) or EP4 (EP4R). The resulting cell line ACTOne™ PTGER2 or ACTOne™ EP4R as well as the fluorescent membrane potential dye were purchased from eEnzyme (Gaithersburg, MD, US) and used in this assay. Briefly, cells were plated at 1.2×10^4 cells/well in 20 μL DMEM supplemented with 2% Fetal Bovine Serum (FBS, VWR International), 1x Penicillin/Streptomycin (GenClone), 0.2 μg/mL puromycin (InvivoGen) and 50 μg/mL G418 (InvivoGen) on a 384 well plate (Greiner). The next day, cells were dye-loaded with 20 μL/well of 1x Dye-loading solution (eENZYME) following the manufacturer's instruction. After 2 hours of incubation at room temperature (RT) in the dark, a pre-read was made to obtain the background signals using CLARIOstar plate reader (BMG LABTECH, Germany) with the following filter settings: excitation=530/20 nm, emission=590/20 nm. Next, a serial dilution of compound (plus a DMSO control) were added to the plate (5 μL/well) and the reaction was incubated at RT for 15 min before adding 5 μL of PGE2 to every well for a final concentration of 5 nM. All wells were duplicated. The plate was then further incubated at RT for 30 min prior to a final read with the same machine settings. Background-subtracted signals were used to calculate IC50 values.
2. Human EP2 and EP4 Reporter Assay Kits were purchased from Cayman Chemical (Ann Arbor, MI, USA). The assay was performed following the provided User Manual. Briefly, a reverse transfection was performed by seeding 6.0×10^4 of 293T cells (ATCC) to each well of the provided Strip Plate coated with a proprietary transfection complex containing DNA constructs for expressing human EP2 or EP4 and a cAMP response element regulated secreted alkaline phosphatase (SEAP) reporter, in 200 μL DMEM supplemented with 2% FBS and incubated for 20-24 hours at 37° C. with 5% CO2. After the incubation, the culture medium was carefully removed, and the cells were replenished with 150 μL pre-warmed serum-free medium. PGE2 and test compounds were prepared together at 4x the desired final concentration, and 50 μL was added to each assigned well with the final concentration of 13 nM and 2 nM PGE2 for EP2 and EP4 assay, respectively. After 6-8 hours of incubation, 10 μL media from each well was transferred to corresponding well of a new plate, which was then sealed and incubated at 65° C. for 30 min. The plate was then cooled down to RT and 50 μL SEAP substrate was added to each well. Luminescence signal was measured using a CLARIOstar plate reader.
The IC50 value was determined as the concentration for 50% inhibition of signal compared to DMSO (A: IC50 […]; B: IC50 between 100 nM and 1,000 nM; C: IC50≥1,000 nM).

T1 sequence (P43116 whole entry): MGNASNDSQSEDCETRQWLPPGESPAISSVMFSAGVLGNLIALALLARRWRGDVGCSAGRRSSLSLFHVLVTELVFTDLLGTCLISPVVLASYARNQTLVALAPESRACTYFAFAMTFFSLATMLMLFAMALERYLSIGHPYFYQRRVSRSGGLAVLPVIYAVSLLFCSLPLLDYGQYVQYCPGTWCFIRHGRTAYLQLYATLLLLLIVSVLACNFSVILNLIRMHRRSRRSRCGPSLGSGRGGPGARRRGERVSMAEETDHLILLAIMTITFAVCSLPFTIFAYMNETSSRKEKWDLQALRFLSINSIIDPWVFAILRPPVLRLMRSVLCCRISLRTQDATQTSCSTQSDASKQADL

Question: Which IC50 does the source give for `C[C@H](NC(=O)c1cc(-c2ccc(F)c(F)c2)cc2ccn(Cc3ccc(C(F)(F)F)cc3)c12)c1ccc(C(=O)O)cc1` [Example 53] here?
Answer: < 100 nM

Question: With `C[C@H](NC(=O)c1cc(-c2cc(F)cc(F)c2)cc2ccn(Cc3ccc(C(F)(F)F)cc3)c12)c1ccc(C(=O)O)cc1` [Example 54, (S)-4-(1-(5-(3,5-difluorophenyl)-1-(4-(trifluoromethyl)benzyl)-1H-indole-7-carboxamido)ethyl) benzoic acid] as the molecule, how does the IC50 read?
Answer: < 100 nM

Question: For `O=C(O)c1ccc(CNC(=O)c2ccc(N3CCOCC3)c3ccn(Cc4ccc(C(F)(F)F)cc4)c23)cc1` [Example 58, 4-((4-morpholino-1-(4-(trifluoromethyl)benzyl)-1H-indole-7-carboxamido)methyl)benzoic acid], which IC50 is on record?
Answer: ≥ 1000 nM

Question: Which IC50 does the source give for `CN1CCN(c2ccc(C(=O)NCc3ccc(C(=O)O)cc3)c3c2ccn3Cc2ccc(C(F)(F)F)cc2)CC1` [Example 59, 4-((4-(4-methylpiperazin-1-yl)-1-(4-(trifluoromethyl)benzyl)-1H-indole-7-carboxamido)methyl)benzoic acid] here?
Answer: ≥ 1000 nM

Question: With `N#Cc1cccc(Nc2ccc(C(=O)NC3(c4ccc(C(=O)O)cc4)CC3)c3c2ccn3Cc2ccc(C(F)(F)F)cc2)c1` [Example 61, 4-(1-(4-((3-cyanophenyl)amino)-1-(4-(trifluoromethyl)benzyl)-1H-indole-7-carboxamido)cyclopropyl)benzoic acid] as the molecule, how does the IC50 read?
Answer: 100 to 1000 nM

Question: For `N#Cc1ccc(Nc2ccc(C(=O)NC3(c4ccc(C(=O)O)cc4)CC3)c3c2ccn3Cc2ccc(C(F)(F)F)cc2)cc1` [Example 62, 4-(1-(4-((4-cyanophenyl)amino)-1-(4-(trifluoromethyl)benzyl)-1H-indole-7-carboxamido)cyclopropyl)benzoic acid], which IC50 is on record?
Answer: ≥ 1000 nM

Question: How did the IC50 turn out when `O=C(O)c1ccc(C2(NC(=O)c3ccc(Nc4ccc(F)c(F)c4)c4ccn(Cc5ccc(C(F)(F)F)cc5)c34)CC2)cc1` [Example 63, 4-(1-(4-((3,4-difluorophenyl)amino)-1-(4-(trifluoromethyl)benzyl)-1H-indole-7-carboxamido)cyclopropyl)benzoic acid] was run?
Answer: 100 to 1000 nM

Question: For `O=C(O)c1ccc(C2(NC(=O)c3ccc(Nc4ccc(F)cc4)c4ccn(Cc5ccc(C(F)(F)F)cc5)c34)CC2)cc1` [Example 64, 4-(1-(4-((4-fluorophenyl)amino)-1-(4-(trifluoromethyl)benzyl)-1H-indole-7-carboxamido)cyclopropyl)benzoic acid], which IC50 is on record?
Answer: < 100 nM

Question: How did the IC50 turn out when `O=C(O)c1ccc(C2(NC(=O)c3ccc(Nc4ccc(F)c(Cl)c4)c4ccn(Cc5ccc(C(F)(F)F)cc5)c34)CC2)cc1` [Example 65, 4-(1-(4-((3-chloro-4-fluorophenyl)amino)-1-(4-(trifluoromethyl)benzyl)-1H-indole-7-carboxamido)cyclopropyl)benzoic acid] was run?
Answer: 100 to 1000 nM

Question: For `O=C(O)c1ccc(C2(NC(=O)c3ccc(Nc4cc(F)cc(F)c4)c4ccn(Cc5ccc(C(F)(F)F)cc5)c34)CC2)cc1` [Example 66, 4-(1-(4-((3,5-difluorophenyl)amino)-1-(4-(trifluoromethyl)benzyl)-1H-indole-7-carboxamido)cyclopropyl)benzoic acid], which IC50 is on record?
Answer: 100 to 1000 nM

Question: With `O=C(O)c1ccc(C2(NC(=O)c3ccc(Nc4cccc(F)c4)c4ccn(Cc5ccc(C(F)(F)F)cc5)c34)CC2)cc1` [Example 67, 4-(1-(4-((3-fluorophenyl)amino)-1-(4-(trifluoromethyl)benzyl)-1H-indole-7-carboxamido)cyclopropyl)benzoic acid] as the molecule, how does the IC50 read?
Answer: < 100 nM

Question: How did the IC50 turn out when `N#Cc1cccc(Nc2ccc(C(=O)NCc3ccc(C(=O)O)cc3)c3c2ccn3Cc2ccc(C(F)(F)F)cc2)c1` [Example 68, 4-((4-((3-cyanophenyl)amino)-1-(4-(trifluoromethyl)benzyl)-1H-indole-7-carboxamido)methyl)benzoic acid] was run?
Answer: < 100 nM

Question: `O=C(O)c1ccc(CNC(=O)c2ccc(Nc3ccc(F)c(Cl)c3)c3ccn(Cc4ccc(C(F)(F)F)cc4)c23)cc1` [Example 70] was tested. Which IC50 did it give?
Answer: < 100 nM

Question: With `O=C(O)c1ccc(CNC(=O)c2ccc(Nc3ccc(Cl)c(F)c3)c3ccn(Cc4ccc(C(F)(F)F)cc4)c23)cc1` [Example 71, ((4-((4-chloro-3-fluorophenyl)amino)-1-(4-(trifluoromethyl)benzyl)-1H-indole-7-carboxamido)methyl)benzoic acid acid] as the molecule, how does the IC50 read?
Answer: 100 to 1000 nM

Question: How did the IC50 turn out when `O=C(O)c1ccc(CNC(=O)c2ccc(Nc3cccc(F)c3)c3ccn(Cc4ccc(C(F)(F)F)cc4)c23)cc1` [Example 72, 4-((4-((3-fluorophenyl)amino)-1-(4-(trifluoromethyl)benzyl)-1H-indole-7-carboxamido)methyl)benzoic acid] was run?
Answer: < 100 nM

Question: How did the IC50 turn out when `O=C(O)c1ccc(CNC(=O)c2ccc(Nc3ccc(Cl)cc3)c3ccn(Cc4ccc(C(F)(F)F)cc4)c23)cc1` [Example 73, ((4-((4-chlorophenyl)amino)-1-(4-(trifluoromethyl)benzyl)-1H-indole-7-carboxamido)methyl)benzoic acid] was run?
Answer: 100 to 1000 nM

Question: Which IC50 does the source give for `O=C(O)c1ccc(CNC(=O)c2cc(-c3cccc(Cl)c3)cc3ccn(Cc4ccc(C(F)(F)F)cc4)c23)cc1` [Example 75, 4-((5-(3-chlorophenyl)-1-(4-(trifluoromethyl)benzyl)-1H-indole-7-carboxamido)methyl)benzoic acid] here?
Answer: < 100 nM

Question: `N#Cc1cc(-c2cc(C(=O)NCc3ccc(C(=O)O)cc3)c3c(ccn3Cc3ccc(C(F)(F)F)cc3)c2)ccc1F` [Example 79, 4-((5-(3-cyano-4-fluorophenyl)-1-(4-(trifluoromethyl)benzyl)-1H-indole-7-carboxamido)methyl)benzoic] was tested. Which IC50 did it give?
Answer: 100 to 1000 nM

Question: Which IC50 does the source give for `N#Cc1ccc(-c2cc(C(=O)NCc3ccc(C(=O)O)cc3)c3c(ccn3Cc3ccc(C(F)(F)F)cc3)c2)cc1` [Example 81, 4-((5-(4-cyanophenyl)-1-(4-(trifluoromethyl)benzyl)-1H-indole-7-carboxamido)methyl)benzoic acid] here?
Answer: < 100 nM

Question: How did the IC50 turn out when `NC(=O)c1cccc(-c2cc(C(=O)NCc3ccc(C(=O)O)cc3)c3c(ccn3Cc3ccc(C(F)(F)F)cc3)c2)c1` [Example 82, 4-((5-(3-carbamoylphenyl)-1-(4-(trifluoromethyl)benzyl)-1H-indole-7-carboxamido)methyl)benzoic acid] was run?
Answer: < 100 nM

Question: Which IC50 does the source give for `NS(=O)(=O)c1cccc(-c2cc(C(=O)NCc3ccc(C(=O)O)cc3)c3c(ccn3Cc3ccc(C(F)(F)F)cc3)c2)c1` [Example 83, 4-((5-(3-sulfamoylphenyl)-1-(4-(trifluoromethyl)benzyl)-1H-indole-7-carboxamido)methyl)benzoic acid] here?
Answer: < 100 nM

Question: With `CS(=O)(=O)c1cccc(-c2cc(C(=O)NCc3ccc(C(=O)O)cc3)c3c(ccn3Cc3ccc(C(F)(F)F)cc3)c2)c1` [Example 84, 4-((5-(3-(methylsulfonyl)phenyl)-1-(4-(trifluoromethyl)benzyl)-1H-indole-7-carboxamido)methyl)benzoic acid] as the molecule, how does the IC50 read?
Answer: < 100 nM

Question: Which IC50 does the source give for `O=C(O)c1ccc(CNC(=O)c2cc(-c3ccccc3O)cc3ccn(Cc4ccc(C(F)(F)F)cc4)c23)cc1` [Example 86, 4-((5-(2-hydroxyphenyl)-1-(4-(trifluoromethyl)benzyl)-1H-indole-7-carboxamido)methyl)benzoic acid] here?
Answer: < 100 nM

Question: Which IC50 does the source give for `O=C(O)c1ccc(CNC(=O)c2cc(-c3cc(Cl)cc(Cl)c3)cc3ccn(Cc4ccc(C(F)(F)F)cc4)c23)cc1` [Example 88, 4-((5-(3,5-dichlorophenyl)-1-(4-(trifluoromethyl)benzyl)-1H-indole-7-carboxamido)methyl)benzoic acid] here?
Answer: 100 to 1000 nM
